Key:
Type in all cases: functional
Rattus norvegicus [1] = test: Anti-inflammatory activity against carrageenan-induced paw oedema in Wistar albino rat assessed as hind paw thickness at 50 mg/kg, po pretreated for 1 hr followed by carrageenan challenge measured immediately by caliper method (reference value: 3.58 +/- 0.34 millimeter)
Rattus norvegicus [2] = test: Anti-inflammatory activity against carrageenan-induced paw oedema in Wistar albino rat assessed as hind paw thickness at 50 mg/kg, po pretreated for 1 hr followed by carrageenan challenge measured after 3 hrs by caliper method (reference value: 8.45 +/- 0.64 millimeter)
Rattus norvegicus [3] = test: Anti-inflammatory activity against carrageenan-induced paw oedema in Wistar albino rat assessed as hind paw thickness at 50 mg/kg, po pretreated for 1 hr followed by carrageenan challenge measured after 5 hrs by caliper method (reference value: 8.37 +/- 0.64 millimeter)
Rattus norvegicus [4] = test: Anti-inflammatory activity against carrageenan-induced paw oedema in Wistar albino rat assessed as reduction in hind paw thickness at 50 mg/kg, po pretreated for 1 hr followed by carrageenan challenge measured after 3 hrs by caliper method relative to control; set-up: scale not given: the % may be the effect or the level left
Rattus norvegicus [5] = test: Anti-inflammatory activity against carrageenan-induced paw oedema in Wistar albino rat assessed as reduction in hind paw thickness at 50 mg/kg, po pretreated for 1 hr followed by carrageenan challenge measured after 5 hrs by caliper method relative to control; set-up: scale not given: the % may be the effect or the level left
Rattus norvegicus [6] = test: Anti-inflammatory activity against carrageenan-induced paw oedema in Wistar albino rat assessed as reduction in TNFalpha level at 50 mg/kg, po pretreated for 1 hr followed by carrageenan challenge by ELISA relative to control; set-up: scale not given: the % may be the effect or the level left
Rattus norvegicus [7] = test: Anti-inflammatory activity against carrageenan-induced paw oedema in Wistar albino rat assessed as reduction in nitrite level at 50 mg/kg, po pretreated for 1 hr followed by carrageenan challenge by Griess assay relative to control; set-up: scale not given: the % may be the effect or the level left
Rattus norvegicus [8] = test: Anti-inflammatory activity against carrageenan-induced paw oedema in Wistar albino rat assessed as reduction in PGE2 level at 50 mg/kg, po pretreated for 1 hr followed by carrageenan challenge by ELISA relative to control; set-up: scale not given: the % may be the effect or the level left
Mus musculus [9] = test: Antiinflammatory activity in mouse assessed as inhibition of croton oil-induced ear edema at 1 mg/ear administered topically pretreated for 1 hr followed by croton oil addition and measured after 4 hrs relative to control; set-up: scale not given: the % may be the effect or the level left
Rattus norvegicus [10] = test: Anti-inflammatory activity in Wistar albino rat assessed as inhibition of cotton pellet-induced granuloma at 50 mg/kg administered once daily for 7 days measured on day 8 relative to control; set-up: scale not given: the % may be the effect or the level left
Rattus norvegicus [11] = test: Anti-inflammatory activity against carrageenan-induced paw oedema in Wistar albino rat assessed as hind paw thickness at 10 mg/kg, po pretreated for 1 hr followed by carrageenan challenge measured immediately by caliper method (reference value: 3.58 +/- 0.34 millimeter)
Rattus norvegicus [12] = test: Anti-inflammatory activity against carrageenan-induced paw oedema in Wistar albino rat assessed as hind paw thickness at 10 mg/kg, po pretreated for 1 hr followed by carrageenan challenge measured after 3 hrs by caliper method (reference value: 8.45 +/- 0.64 millimeter)
Rattus norvegicus [13] = test: Anti-inflammatory activity against carrageenan-induced paw oedema in Wistar albino rat assessed as hind paw thickness at 10 mg/kg, po pretreated for 1 hr followed by carrageenan challenge measured after 5 hrs by caliper method (reference value: 8.37 +/- 0.64 millimeter)
Rattus norvegicus [14] = test: Anti-inflammatory activity against carrageenan-induced paw oedema in Wistar albino rat assessed as reduction in TNFalpha level at 10 mg/kg, po pretreated for 1 hr followed by carrageenan challenge by ELISA relative to control; set-up: scale not given: the % may be the effect or the level left
Rattus norvegicus [15] = test: Anti-inflammatory activity against carrageenan-induced paw oedema in Wistar albino rat assessed as reduction in nitrite level at 10 mg/kg, po pretreated for 1 hr followed by carrageenan challenge by Griess assay relative to control; set-up: scale not given: the % may be the effect or the level left
Rattus norvegicus [16] = test: Anti-inflammatory activity against carrageenan-induced paw oedema in Wistar albino rat assessed as reduction in PGE2 level at 10 mg/kg, po pretreated for 1 hr followed by carrageenan challenge by ELISA relative to control; set-up: scale not given: the % may be the effect or the level left
Mus musculus [17] = test: Antiinflammatory activity in mouse assessed as inhibition of croton oil-induced ear edema at 0.5 mg/ear administered topically pretreated for 1 hr followed by croton oil addition and measured after 4 hrs relative to control; set-up: scale not given: the % may be the effect or the level left
Rattus norvegicus [18] = test: Anti-inflammatory activity in Wistar albino rat assessed as inhibition of cotton pellet-induced granuloma at 10 mg/kg administered once daily for 7 days measured on day 8 relative to control; set-up: scale not given: the % may be the effect or the level left

## O=C1/C(=C/c2ccc(F)cc2)CNCC12[C@@H](c1ccc(F)cc1)[C@@H]1CCCCN1[C@@]21C(=O)Nc2ccccc21 (some centres undefined)
Rattus norvegicus [1]
  Activity: 3.62 mm
Rattus norvegicus [2]
  Activity: 7.18 mm
Rattus norvegicus [3]
  Activity: 6.9 mm

## O=C1/C(=C/c2ccc(Cl)cc2)CNCC12[C@@H](c1ccc(Cl)cc1)[C@@H]1CCCCN1[C@@]21C(=O)Nc2ccccc21 (some centres undefined)
Rattus norvegicus [1]
  Activity: 3.62 mm
Rattus norvegicus [2]
  Activity: 8.16 mm
Rattus norvegicus [3]
  Activity: 8 mm

## Cc1ccc(/C=C2\CNCC3(C2=O)[C@@H](c2ccc(C)cc2)[C@@H]2CCCCN2[C@@]32C(=O)Nc3ccccc32)cc1 (some centres undefined)
Rattus norvegicus [1]
  Activity: 3.55 mm
Rattus norvegicus [2]
  Activity: 3.87 mm
Rattus norvegicus [3]
  Activity: 3.74 mm
Rattus norvegicus [4]
  Activity: 54.07%
Rattus norvegicus [5]
  Activity: 55.3%
Rattus norvegicus [6]
  Activity: 36.23%
Rattus norvegicus [7]
  Activity: 42.99%
Rattus norvegicus [8]
  Activity: 35.23%
Mus musculus [9]
  Activity: 47.53 - 54.53%
Rattus norvegicus [10]
  Activity: 24.17 - 33.23%

## O=C1/C(=C/c2ccccc2Br)CNCC12[C@@H](c1ccccc1Br)[C@@H]1CCCCN1[C@@]21C(=O)Nc2ccccc21 (some centres undefined)
Rattus norvegicus [1]
  Activity: 3.54 mm
Rattus norvegicus [2]
  Activity: 7 mm
Rattus norvegicus [3]
  Activity: 6.2 mm

## COc1ccc(/C=C2\CNCC3(C2=O)[C@@H](c2ccc(OC)cc2)[C@@H]2CCCCN2[C@@]32C(=O)Nc3ccccc32)cc1 (some centres undefined)
Rattus norvegicus [1]
  Activity: 3.58 mm
Rattus norvegicus [2]
  Activity: 3.75 mm
Rattus norvegicus [3]
  Activity: 3.72 mm
Rattus norvegicus [4]
  Activity: 55.61%
Rattus norvegicus [5]
  Activity: 55.54%
Rattus norvegicus [6]
  Activity: 38.52%
Rattus norvegicus [7]
  Activity: 41.22%
Rattus norvegicus [8]
  Activity: 34.1%
Mus musculus [9]
  Activity: 48.32 - 49.02%
Rattus norvegicus [10]
  Activity: 32.48 - 37.21%

## O=C1/C(=C/c2ccccc2F)CNCC12[C@@H](c1ccccc1F)[C@@H]1CCCCN1[C@@]21C(=O)Nc2ccccc21 (some centres undefined)
Rattus norvegicus [1]
  Activity: 3.61 mm
Rattus norvegicus [2]
  Activity: 6.53 mm
Rattus norvegicus [3]
  Activity: 6.13 mm

## Cc1ccccc1/C=C1\CNCC2(C1=O)[C@@H](c1ccccc1C)[C@@H]1CCCCN1[C@@]21C(=O)Nc2ccccc21 (some centres undefined)
Rattus norvegicus [1]
  Activity: 3.63 mm
Rattus norvegicus [2]
  Activity: 7.5 mm
Rattus norvegicus [3]
  Activity: 7.41 mm

## O=C1/C(=C/c2ccccc2Cl)CNCC12[C@@H](c1ccccc1Cl)[C@@H]1CCCCN1[C@@]21C(=O)Nc2ccccc21 (some centres undefined)
Rattus norvegicus [1]
  Activity: 3.59 mm
Rattus norvegicus [2]
  Activity: 6.54 mm
Rattus norvegicus [3]
  Activity: 7.18 mm

## O=C1/C(=C/c2ccc(Cl)cc2Cl)CNCC12[C@@H](c1ccc(Cl)cc1Cl)[C@@H]1CCCCN1[C@@]21C(=O)Nc2ccccc21 (some centres undefined)
Rattus norvegicus [1]
  Activity: 3.59 mm
Rattus norvegicus [2]
  Activity: 7.12 mm
Rattus norvegicus [3]
  Activity: 6.5 mm

## COc1cccc(/C=C2\CNCC3(C2=O)[C@@H](c2cccc(OC)c2)[C@@H]2CCCCN2[C@@]32C(=O)Nc3ccccc32)c1 (some centres undefined)
Rattus norvegicus [1]
  Activity: 3.61 mm
Rattus norvegicus [2]
  Activity: 8.1 mm
Rattus norvegicus [3]
  Activity: 7.62 mm

## COc1ccccc1/C=C1\CNCC2(C1=O)[C@@H](c1ccccc1OC)[C@@H]1CCCCN1[C@@]21C(=O)Nc2ccccc21 (some centres undefined)
Rattus norvegicus [1]
  Activity: 3.67 mm
Rattus norvegicus [2]
  Activity: 6.31 mm
Rattus norvegicus [3]
  Activity: 7 mm

## O=C1/C(=C/c2ccccc2)CNCC12[C@@H](c1ccccc1)[C@@H]1CCCCN1[C@@]21C(=O)Nc2ccccc21 (some centres undefined)
Rattus norvegicus [1]
  Activity: 3.61 mm
Rattus norvegicus [2]
  Activity: 7.21 mm
Rattus norvegicus [3]
  Activity: 6.98 mm

## O=C1/C(=C/c2ccc(Br)cc2)CNCC12[C@@H](c1ccc(Br)cc1)[C@@H]1CCCCN1[C@@]21C(=O)Nc2ccccc21 (some centres undefined)
Rattus norvegicus [1]
  Activity: 3.58 mm
Rattus norvegicus [2]
  Activity: 7.62 mm
Rattus norvegicus [3]
  Activity: 7.7 mm

## Cc1cccc(/C=C2\CNCC3(C2=O)[C@@H](c2cccc(C)c2)[C@@H]2CCCCN2[C@@]32C(=O)Nc3ccccc32)c1 (some centres undefined)
Rattus norvegicus [1]
  Activity: 3.58 mm
Rattus norvegicus [2]
  Activity: 8.16 mm
Rattus norvegicus [3]
  Activity: 7.82 mm

## COc1ccc2c(c1)c(CC(=O)O)c(C)n2C(=O)c1ccc(Cl)cc1 [INDOMETHACIN]
Rattus norvegicus [11]
  Activity: 3.61 mm
Rattus norvegicus [12]
  Activity: 3.86 mm
Rattus norvegicus [13]
  Activity: 3.83 mm
Rattus norvegicus [14]
  Activity: 37.13%
Rattus norvegicus [15]
  Activity: 41.64%
Rattus norvegicus [16]
  Activity: 33.88%
Mus musculus [17]
  Activity: 53.56%
Rattus norvegicus [18]
  Activity: 39.7%
